Values of other authors as cited in patent US20080234349A1, “PPAR active compounds” (priority 2005, published 2008).

Experiments:
PPARδ = biological target: T1, PPARδ (Homo sapiens, UniProt Q03181)
T1 sequence (Q03181 1-441): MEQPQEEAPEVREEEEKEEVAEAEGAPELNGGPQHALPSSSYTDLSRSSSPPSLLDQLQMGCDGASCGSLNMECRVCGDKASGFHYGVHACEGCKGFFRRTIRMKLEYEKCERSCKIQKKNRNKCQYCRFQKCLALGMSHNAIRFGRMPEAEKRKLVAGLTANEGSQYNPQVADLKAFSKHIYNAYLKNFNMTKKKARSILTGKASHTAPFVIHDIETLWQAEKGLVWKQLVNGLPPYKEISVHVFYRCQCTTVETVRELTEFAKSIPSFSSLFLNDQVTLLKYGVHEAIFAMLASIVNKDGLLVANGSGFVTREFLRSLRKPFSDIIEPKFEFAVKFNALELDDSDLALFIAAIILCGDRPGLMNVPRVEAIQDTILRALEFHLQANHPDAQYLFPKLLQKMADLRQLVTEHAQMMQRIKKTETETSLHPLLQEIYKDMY

murine PPARα = biological target: T2, murine PPARα (Mus musculus, UniProt P23204)
T2 sequence (P23204 1-468): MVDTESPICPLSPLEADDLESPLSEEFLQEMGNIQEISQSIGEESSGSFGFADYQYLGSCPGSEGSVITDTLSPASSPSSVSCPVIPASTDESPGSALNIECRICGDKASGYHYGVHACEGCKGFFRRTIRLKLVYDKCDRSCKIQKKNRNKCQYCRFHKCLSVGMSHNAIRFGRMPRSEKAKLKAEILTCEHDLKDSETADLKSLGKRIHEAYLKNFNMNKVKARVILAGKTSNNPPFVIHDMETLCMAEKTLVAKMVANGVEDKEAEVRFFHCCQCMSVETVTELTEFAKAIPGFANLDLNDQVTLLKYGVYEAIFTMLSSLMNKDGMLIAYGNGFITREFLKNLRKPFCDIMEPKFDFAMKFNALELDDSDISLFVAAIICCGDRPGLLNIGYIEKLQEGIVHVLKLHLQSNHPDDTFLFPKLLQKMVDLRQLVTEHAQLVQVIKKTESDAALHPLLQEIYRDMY

[1] = recent large prospective trial, patients

agonist selectivity for PPARδ over PPARγ (PPARδ)	activity on murine PPARα (murine PPARα)	Compound	reduction in cardiovascular events or death [1] [%]
approximately 30 fold	inactive	CCCc1c(OCCCOc2ccc(OCC(=O)O)cc2)ccc(C(C)=O)c1O [Compound L-165041]	–
–	–	Cc1ccc(C)c(OCCCC(C)(C)C(=O)O)c1 [gemfibrozil]	22
